Key:
Assay in all cases: Wood preservation test ES 84/113, pine sapwood, weight loss of wood samples
Assay type in all cases: cell-based
[1] = test system: Gloeophyllum trabeum; details: Gloephyllum, substance alone
Method: (§1) Determination of the Activity of the Cyproconazole in Combination with Dimethyldidecylammonium Chloride Against Wood-destroying Basidiomycetes
(§2) The active substances were tested in accordance with European Testing Standards ES 84 (1979) and 113 (1986). Treatment with the active substances prevents the wood from being destroyed. The effect of the treatment is quantified indirectly via the non-existing weight loss of the wood samples.
(§3) The wood sample used was pine sapwood, and the test fungi used were Coniophora puteana (cellar fungus), Poria plazenta, Gloeophyllum trabeum and Trametes (Coriolus) versicolor. Markedly smaller amounts of the combination according to the invention of cyproconazole (A: 2-(4-chlorophenyl)-3-cyclopropyl-3-methyl-1-(1H,1,2,4-triazol-1-yl)-butan-2-ol) and dimethyldidecylammonium chloride (B1) have the same result (0% weight loss) as cyproconazole or B1 alone. Comparably good results were also obtained when beech was used as the wood sample.

[2] = test system: Poria plazenta; details: substance alone
Method: as §1, §2, §3

[3] = test system: Trametes (Coriolus) versicolor; details: substance alone
Method: as §1, §2, §3

[4] = test system: Coniophora puteana (cellar fungus); details: substance alone
Method: as §1, §2, §3

Structure (SMILES) | Amount (g/m^3) of active Substance at 0% Weight Loss [1] | Amount (g/m^3) of active Substance at 0% Weight Loss [2] | Amount (g/m^3) of active Substance at 0% Weight Loss [3] | Amount (g/m^3) of active Substance at 0% Weight Loss [4]
CCCCCCCCCC[N+](C)(C)CCCCCCCCCC.[Cl-] [B1, dimethyldidecylammonium chloride] | 12,505 g g/m^3 | 3,175 g g/m^3 | 2,675 g g/m^3 | 12,415 g g/m^3
CC(C1CC1)C(O)(Cn1cncn1)c1ccc(Cl)cc1 (centres unmarked) [A] | 247 g g/m^3 | 243 g g/m^3 | 418 g g/m^3 | 247 g g/m^3
